Results: patent publication US20050148514A1, “Method and composition for treatment of angiogenesis” (priority 2003, published 2005)
Where no end group is shown, it is not given here.

Assays:
PDGF receptor (PDGFR) = target: T1, PDGF receptor (PDGFR) (Homo sapiens, UniProt P09619); experiment: PDGF-induced PDGFR phosphorylation in PASMC; format: cell-based; conditions: treatment as for HUVEC
T1 construct: host or cells: PASMC (pulmonary aortic smooth muscle cells)
Description: (§1) Cell culture. Human umbilical vein endothelial cells (HUVEC) and pulmonary aortic smooth muscle cells (PASMC) were obtained from Clonetics and maintained in endothelial cell basal medium-2, (EBM-2; Clonetics) and smooth muscle medium-2 (SmGM-2; Clonetics), respectively. Cells were cultured at 37° C. under a humidified atmosphere containing 5% CO2. For experimental purposes, cells were plated in 8 100-mm plastic dishes at 5,000 cells/cm^2 and were grown to confluence before overnight serum starvation. Cells were treated with vehicle or with a PCK3145 derivative diluted in 0.1 N NaOH, and stimulated with 50 ng/ml VEGF, PDGF or with 1 μM S1P.
(§2) Immunoprecipitation and immunoblotting procedures. After treatment, cells were washed once with phosphate-buffered saline (PBS) containing 1 mM sodium orthovanadate and were incubated in the same medium for 1 h at 4° C. The cells were solubilized on ice in lysis buffer (150 mM NaCl, 10 mM Tris-HCl, pH 7.4, 1 mM EDTA, 1 mM EGTA, 0.5% Nonidet P-40, 1% Triton X-100) containing 1 mM sodium orthovanadate. The cells were then scraped from the culture dishes and the resulting lysates were clarified by centrifugation at 10,000 g for 10 min. Protein concentrations were determined using the micro bicinchoninic acid method. For immunoprecipitation studies, lysates were clarified by a 1 h incubation at 4° C. with a mixture of Protein A/Protein G Sepharose beads. […]

ERK [1] = experiment: VEGF-induced ERK phosphorylation in BAEC; format: cell-based; conditions: data not shown
Description: VEGF is a strong activator of ERKs (Extracellular-signal-Regulated protein Kinases) 1 and 2 via VEGF receptor 2. In order to test the ability of the PCK3145 derivative in potentially antagonizing VEGF-mediated ERK phosphorylation, serum-starved quiescent endothelial cells (HUVEC) were incubated with vehicle (phosphate-buffered saline (PBS) pH 7.4) or PCK3145 derivative (300 μg/ml) for 24 h and then stimulated with VEGF, bFGF (basic Fibroblast Growth Factor) or S1P (sphingosine-1-phosphate). Cells were washed with PBS containing NaF/Na3VO4 and incubated in the same medium buffer for 1 h at 4° C. The cells were scraped from the culture dishes and the resulting lysates clarified by centrifugation. Western blotting and immunodetection using anti-phosphoERK and anti-ERK antibodies was then performed.
The total amount of ERK in each sample of cells was unaffected by the PCK3145 derivative (FIG. 4A). Although, PCK3145 derivative also seemed to stimulate ERK phosphorylation induced by S1P in HUVEC (FIG. 4A), that result was found not statistically significant.

ERK [2] = experiment: PDGF-induced ERK phosphorylation in PASMC; format: cell-based; conditions: treatment as for HUVEC
Description: as §1, §2

proMMP-2 = experiment: Gelatin zymography of conditioned media of serum-starved HUVEC; format: cell-based, Human; conditions: 300 μg/ml, 24 hours
Description: Zymography. Zymography is a technique generally used to analyze the activity of matrix metalloproteinases (MMPs) in biological samples. It involves the electrophoretic separation of proteins under denaturing (Sodium Dodecyl Sulfate (SDS)) but non-reducing conditions through a polyacrylamide gel containing gelatin (for example, 10% gel containing 1 mg/ml gelatin for MMP-9 and MMP-2 assays). The resolved proteins are re-natured by exchanging SDS with a non-ionic detergent such as Triton X-100 and the gel is incubated in an incubation buffer for activation of MMP-2 and MMP-9 (for example at 37° C. for 18 hrs). The gel is stained with Coomassie blue and the MMP-2 and MMP-9 bands may be visualized as clear bands against a blue background (i.e., the MMPs degrade the gelatin and are visualized as clear bands; pro MMP-2 is 68 kDa and pro-MMP-9 is 92 kDa). These bands can be quantified using densitometry.
Cell culture. Human umbilical vein endothelial cells (HUVEC) and pulmonary aortic smooth muscle cells (PASMC) were obtained from Clonetics and maintained in endothelial cell basal medium-2, (EBM-2; Clonetics) and smooth muscle medium-2 (SmGM-2; Clonetics), respectively. […]
The effect of the PCK3145 derivative (SEQ ID NO.:7) on MMP extracellular levels was assessed by gelatin-zymography in the conditioned media of serum-starved HUVEC. […]

[3] = tested on: constitutive secretion pathway; experiment: SEAP gene-reporter assay in U-87 glioma cells, constitutively expressed SEAP; format: cell-based
Description: In order to investigate the potential intracellular pathways triggered by the PCK3145 derivative, a gene-reporter assay using the SEAP (Secreted Alkaline Phosphatase) Mercury Profiling Kit (CLONTECH) was performed in glioma cells (U-87). This assay enables the monitoring of transcription factors that are triggered by a particular experimental condition by assaying the alkaline phosphatase activity in the extracellular media. […] The induction of the MAPK pathway by the PCK3145 derivative is further confirmed by the rapid and transient induction of ERK phosphorylation between 5-10 minutes (FIG. 8B) and is shown to be dose-dependent (FIG. 8C). Finally, the effects of the PCK3145 derivative were also compared to those of a scrambled peptide.

T1 sequence (P09619 33-1106): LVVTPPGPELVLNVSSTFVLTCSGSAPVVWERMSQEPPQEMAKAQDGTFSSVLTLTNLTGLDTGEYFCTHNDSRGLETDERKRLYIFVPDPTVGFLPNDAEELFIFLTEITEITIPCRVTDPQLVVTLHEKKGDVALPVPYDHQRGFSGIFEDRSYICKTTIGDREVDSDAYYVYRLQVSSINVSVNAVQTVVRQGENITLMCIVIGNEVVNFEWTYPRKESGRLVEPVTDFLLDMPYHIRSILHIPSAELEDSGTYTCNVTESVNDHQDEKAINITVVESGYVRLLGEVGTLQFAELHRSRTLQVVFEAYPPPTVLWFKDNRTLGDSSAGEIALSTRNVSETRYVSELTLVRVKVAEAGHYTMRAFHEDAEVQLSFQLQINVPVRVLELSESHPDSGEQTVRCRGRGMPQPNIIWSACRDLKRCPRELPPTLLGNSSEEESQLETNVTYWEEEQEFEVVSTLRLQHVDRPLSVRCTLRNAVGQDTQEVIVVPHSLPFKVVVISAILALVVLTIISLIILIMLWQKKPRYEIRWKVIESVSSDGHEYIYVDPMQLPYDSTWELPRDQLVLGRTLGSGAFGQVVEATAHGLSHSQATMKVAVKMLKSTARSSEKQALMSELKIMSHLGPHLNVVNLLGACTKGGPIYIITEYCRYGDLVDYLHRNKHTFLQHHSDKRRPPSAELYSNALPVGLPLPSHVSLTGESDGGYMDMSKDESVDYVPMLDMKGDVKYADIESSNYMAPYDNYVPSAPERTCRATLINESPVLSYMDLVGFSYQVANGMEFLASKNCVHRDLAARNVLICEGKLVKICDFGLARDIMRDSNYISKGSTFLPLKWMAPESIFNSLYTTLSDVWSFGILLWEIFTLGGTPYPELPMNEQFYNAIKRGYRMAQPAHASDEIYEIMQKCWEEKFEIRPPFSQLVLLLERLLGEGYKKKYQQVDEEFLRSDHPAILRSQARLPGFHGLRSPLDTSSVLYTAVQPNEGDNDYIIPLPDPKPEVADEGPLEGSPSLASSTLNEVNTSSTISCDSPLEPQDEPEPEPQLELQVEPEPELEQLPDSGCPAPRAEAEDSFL

EWQTDNCETCTCYET (cysteine pairing not given here)
PDGFR phosphorylation induced by PDGF (PDGF receptor (PDGFR)): inhibition
ERK phosphorylation induced by VEGF (ERK [1]): inhibitory effect was confirmed
PDGF-induced ERK phosphorylation (ERK [2]): inhibition
inhibition of VEGF-induced proMMP-2 secretion (proMMP-2): approximately 50%
secretion of the constitutively expressed SEAP [3]: inhibited
